Experimental findings from patent EP4389746A2, “P2X3 RECEPTOR ANTAGONISTS” (Recordati Industria Chimica E Farmaceutica SPA, priority 2022, dated 2024) are described below.

The target in the assay is T1, human P2X3 receptor (Homo sapiens, UniProt P56373).
T1 construct: expressed in transfected cells; host or cells: CHO-K1
T1 sequence (P56373 1-397): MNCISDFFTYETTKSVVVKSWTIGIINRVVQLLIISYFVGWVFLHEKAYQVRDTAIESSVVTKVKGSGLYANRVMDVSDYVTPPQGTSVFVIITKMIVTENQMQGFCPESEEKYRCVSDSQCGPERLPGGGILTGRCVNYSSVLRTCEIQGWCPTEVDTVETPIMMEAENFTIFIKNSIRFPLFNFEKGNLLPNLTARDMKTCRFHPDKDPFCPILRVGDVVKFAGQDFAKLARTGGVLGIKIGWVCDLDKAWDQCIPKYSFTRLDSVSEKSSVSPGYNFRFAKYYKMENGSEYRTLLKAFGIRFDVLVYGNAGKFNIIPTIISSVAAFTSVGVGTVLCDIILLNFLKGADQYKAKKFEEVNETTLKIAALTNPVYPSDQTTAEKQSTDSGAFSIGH
The assay can be described thus: Calcium luminescence measurement: human P2X3 receptor activity inhibition (CHO-K1 cells, photoprotein readout, FLEXSTATION). The assay is classed as cell-based. The conditions noted are these: CHO-K1 cells co-expressing human P2X3 and Ca2+ sensitive photoprotein; agonist α,β-Met-ATP; read-out: h-P2X3 IC50. As for the experimental part:
Determination of human P2X3 receptor activity inhibition
The assay for the human purinergic P2RX3 receptor has been adapted to the internal screening instrumentation using the FLEXSTATION as reader and a photoprotein as luminescent readout. The assay consists of CHO-K1 cells recombinantly co-expressing the human P2rx3 receptor and a Ca^2+ sensitive photoprotein. Cells are maintained in DMEM F-12 (1:1) mixture (LONZA cat. n° BE04-687F/U1) supplemented with 9 mL of 100 mM Sodium Pyruvate (LONZA cat. n° BE13-115E), 29 mL of 7.5% Sodium Bicarbonate (LONZA cat. n° BE17-613E), 5.5 mL of 1 M Hepes (LONZA cat. n° BE17-737E), 5 mL of 100X Penicillin/Streptomycin mixture (LONZA cat. n° DE17-602E) and 50 mL of Fetal Bovine Serum (Sigma cat. n° F7524), 1 mg/mL G418 disulfate salt (Sigma cat. n° G8168) and 5 µg/ml Puromycin dihydrochloride (Sigma cat. n° P9620). Standard propagation conditions consist of seeding in a P75 flask twice a week, recovering about 20×10^6 cells, corresponding to about 80% confluency. Cells were seeded into black-walled clear bottom 96 well plates at a density of 40000 cells/well in a complete medium. After 24 h the culture medium was replaced with 200 µL/well of coelenterazine in Tyrode's buffer (Standard Tyrode's buffer: in house solution, 130 mM NaCl, 5 mM KCl, 2 mM CaCl2, 5 mM NaHCO3, 1 mM MgCl2, 20 mM HEPES, pH 7.4). Coelenterazine was purchased from BIOSYNTH (cat. n° C-7001). 10 mM stock solution was prepared in DMSO and glutathione and stored at -20° C. The plates were incubated for 4 hours at 37°C, and injected with 10 µL/well of test compounds at 25X concentration in Tyrode's buffer. After 4 minutes a second injection of 50 µL/well of 5X α,β-Met-ATP in Tyrode's buffer (α,β-Met-ATP: from Tocris (cat. n° 3209), was dissolved at 100 mM in water and stored in aliquots at -20°C) was performed and the signal of the emitted luminescence was recorded by FLEXSTATION III (Molecular Devices). […]
The inhibition curves of the tested compounds at cloned P2X3 receptor were determined by nonlinear regression analysis using software Prism 5.0 (Graphpad, San Diego, CA). The IC50 values and pseudo-Hill slope coefficients were estimated by the program.
Turning to `COc1ccc(Cn2c(=O)n3c(C(C)(C)C)nnc3c3ncc(N4CCC(N)CC4)cc32)cc1` [Example 40, 8-(4-Aminopiperidin-1-yl)-3-tert-butyl-6-[(4-methoxyphenyl)methyl]pyrido[2,3-e][1,2,4]triazolo[4,3-c]pyrimidin-5(6H)-one], the IC50 is 491 nM.

Take `CC(C)(C)c1nc2c3ncc(N4CCCC(O)C4)cc3n(Cc3ccc(Cl)cc3)c(=O)n2n1` (stereo not drawn) [Example 52, 2-tert-Butyl-6-[(4-chlorophenyl)methyl]-8-(3-hydroxypiperidin-1-yl)pyrido[2,3-e][1,2,4]triazolo[1,5-c]pyrimidin-5(6H)-one]: the IC50 is 215 nM.

“3-tert-Butyl-6-[(4-chlorophenyl)methyl] -8-[4-(hydroxymethyl)piperidin-1-yl]pyrido[2,3-e][1,2,4]triazolo[4,3-c]pyrimidin-5(6H)-one [Example 41]”: the IC50 stood at 9.5 nM. In the case of `CC(C)C1CN2C(=O)N(Cc3ccc(Cl)cc3)c3cc(NC4CCOCC4)cnc3C2=N1` (stereo not drawn) [Example 16, 6-[(4-Chlorophenyl)methyl]-8-[(oxan-4-yl)amino]-2-(propan-2-yl)-2,6-dihydroimidazo[1,2-c]pyrido[2,3-e]pyrimidin-5(3H)-one] it was 872 nM; in that of `COc1cc(CN2C(=O)N3CC(C(C)(C)C)N=C3c3ncc(N4CCOCC4)cc32)cc(OC)c1` (stereo not drawn) [Example 3, 2-tert-Butyl-6-(3,5-dimethoxybenzyl)-8-(morpholin-4-yl)-2,6-dihydroimidazo[1,2-c]pyrido[2,3-e]pyrimidin-5(3H)-one], 27.3 nM.

As to `CC(C)c1nnc2c3ncc(N4CCC(=O)CC4)cc3n(Cc3ccc(Cl)cc3)c(=O)n12` [Example 39, 6-[(4-Chlorophenyl)methyl]-8-(4-oxopiperidin-1-yl)-3-(propan-2-yl)pyrido[2,3-e][1,2,4]triazolo[4,3-c]pyrimidin-5(6H)-one], the IC50 was 1260 nM. Take `CC(C)C1CN2C(=O)N(Cc3ccc(Cl)cc3)c3cc(NC(CO)CO)cnc3C2=N1` (stereo not drawn) [Example 15, 6-[(4-Chlorophenyl)methyl]-8-[(1,3-dihydroxypropan-2-yl)amino]-2-(propan-2-yl)-2,6-dihydroimidazo[1,2-c]pyrido[2,3-e]pyrimidin-5(3H)-one]: the IC50 worked out at 11800 nM. On to `CC(C)C1C(=O)N=C2c3ncc(N4CCOCC4)cc3N(Cc3ccc(Cl)cc3)C(=O)N21` (single isomer, unassigned) [Example 24, (S or R)-6-[(4-Chlorophenyl)methyl]-8-(morpholin-4-yl)-3-(propan-2-yl)imidazo[1,2-c]pyrido[2,3-e]pyrimidine-2,5(3H,6H)-dione], for which the IC50 was determined as 56.2 nM.

In the case of `CC(C)C1C(=O)N=C2c3ncc(N4CCOCC4)cc3N(Cc3ccc(Cl)cc3)C(=O)N21` (single isomer, unassigned) [Example 23, (R or S)-6-[(4-Chlorophenyl)methyl]-8-(morpholin-4-yl)-3-(propan-2-yl)imidazo[1,2-c]pyrido[2,3-e]pyrimidine-2,5(3H,6H)-dione], the IC50 turned out to be 64.7 nM.

Regarding `CC(C)C1CN2C(=O)N(Cc3ccc(Cl)cc3)c3cc(N4CCNCC4)cnc3C2=N1` (stereo not drawn) [Example 8, 6-[(4-Chlorophenyl)methyl]-8-(piperazin-1-yl)-2-(propan-2-yl)-2,6-dihydroimidazo[1,2-c]pyrido[2,3-e]pyrimidin-5(3H)-one], the IC50 is 1380 nM. As for `CC(C)[C@@H]1CN2C(=O)N(Cc3ccc(Cl)cc3)c3cc(N4CCOCC4)cnc3C2=N1` (single isomer, unassigned) [Example 11], the IC50 turned out to be 113 nM.

`CC(C)C1C(=O)N=C2c3ncc(N4CCC(=O)CC4)cc3N(Cc3ccc(Cl)cc3)C(=O)N21` (stereo not drawn) [Example 25, 6-[(4-Chlorophenyl)methyl]-8-(4-oxopiperidin-1-yl)-3-(propan-2-yl)imidazo[1,2-c]pyrido[2,3-e]pyrimidine-2,5(3H,6H)-dione]: the IC50 turned out to be 123 nM.

Turning to `CC(C)(CO)C1CN2C(=O)N(Cc3ccc(Cl)cc3)c3cc(N4CCOCC4)cnc3C2=N1` (stereo not drawn) [Example 12, 6-(4-Chlorobenzyl)-2-(1-hydroxy-2-methylpropan-2-yl)-8-(morpholin-4-yl)-2,6-dihydroimidazo[1,2-c]pyrido[2,3-e]pyrimidin-5(3H)-one], the IC50 amounted to 54 nM.

In the case of `CC(C)[C@H]1CN2C(=O)N(Cc3ccc(Cl)cc3)c3cc(N4CCOCC4)cnc3C2=N1` (single isomer, unassigned) [Example 10], the IC50 came out at 1080 nM. To `CC(C)C1CN2C(=O)N(Cc3ccc(Cl)cn3)c3cc(N4CCOCC4)cnc3C2=N1` (stereo not drawn) [Example 13, 6-[(5-Chloropyridin-2-yl)methyl]-8-(morpholin-4-yl)-2-(propan-2-yl)-2,6-dihydroimidazo[1,2-c]pyrido[2,3-e]pyrimidin-5(3H)-one] belongs 865 nM; to `CC(C)(C)Cc1nc2c3nnc(N4CCOCC4)cc3n(Cc3ccc(Cl)cc3)c(=O)n2n1` [Example 54, 5-[(4-Chlorophenyl)methyl]-9-(2,2-dimethylpropyl)-3-(morpholin-4-yl)[1,2,4]triazolo[1',5':1,6]pyrimido[5,4-c]pyridazin-6(5H)-one], 24.9 nM. On to `COC(C)(C)c1nnc2c3nnc(N4CCNCC4)cc3n(Cc3ccc(Cl)cc3)c(=O)n12` [Example 46, 6-[(4-Chlorophenyl)methyl]-3-(2-methoxypropan-2-yl)-8-(piperazin-1-yl)[1,2,4]triazolo[4',3': 1,6]pyrimido[5,4-c]pyridazin-5(6H)-one], for which the IC50 was determined as 322 nM.

As to `COc1ccc(Cn2c(=O)n3c(C(C)(C)C)nnc3c3ncc(N4CCC(OC)CC4)cc32)cc1` [Example 37, 3-tert-Butyl-6-[(4-methoxyphenyl)methyl] -8-(4-methoxypiperidin-1-yl)pyrido[2,3-e][1,2,4]triazolo[4,3-c]pyrimidin-5(6H)-one], the IC50 is 339 nM. To `COc1cc(Cn2c(=O)n3c(C(C)(C)C)nnc3c3ncc(N4CCOCC4)cc32)ccc1F` [Example 42, 3-tert-Butyl-6-[(4-fluoro-3-methoxyphenyl)methyl] -8-(morpholin-4-yl)pyrido[2,3-e][1,2,4]triazolo[4,3-c]pyrimidin-5(6H)-one] belongs 1170 nM.

Regarding `CC(C)(C)C1CN2C(=O)N(Cc3ccc(Cl)cc3)c3cc(N4CCOCC4)cnc3C2=N1` (stereo not drawn) [Example 4, 2-tert-Butyl-6-(4-chlorobenzyl)-8-(morpholin-4-yl)-2,6-dihydroimidazo[1,2-c]pyrido[2,3-e]pyrimidin-5(3H)-one], the IC50 is 181 nM. Regarding `CC(C)C1CN2C(=O)N(Cc3ccc(Cl)cc3)c3cc(N4CCC(N)CC4)cnc3C2=N1` (stereo not drawn) [Example 7, 8-(4-Aminopiperidin-1-yl)-6-[(4-chlorophenyl)methyl]-2-(propan-2-yl)-2,6-dihydroimidazo[1,2-c]pyrido[2,3-e]pyrimidin-5(3H)-one], the IC50 is 642 nM.

For the molecule `CC1(C)CN2C(=O)N(Cc3ccc(Cl)cc3)c3cc(N4CCOCC4)cnc3C2=N1` [Example 2, 6-(4-Chlorobenzyl)-2,2-dimethyl-8-(morpholin-4-yl)-2,6-dihydroimidazo[1,2-c]pyrido[2,3-e]pyrimidin-5(3H)-one], the IC50 is 1010 nM.

Take `COc1ccc(Cn2c(=O)n3c(C(C)(C)OC)nnc3c3ncc(N4CCOCC4)cc32)cc1` [Example 33, 6-(4-Methoxybenzyl)-3-(2-methoxypropan-2-yl)-8-(morpholin-4-yl)pyrido[2,3-e][1,2,4]triazolo[4,3-c]pyrimidin-5(6H)-one]: the IC50 is 301 nM.

Take `COC(C)(C)c1nnc2c3nnc(N4CCN(C(C)=O)CC4)cc3n(Cc3ccc(Cl)cc3)c(=O)n12` [Example 47, 8-(4-Acetylpiperazin-1-yl) -6-[(4-chlorophenyl)methyl]-3-(2-methoxypropan-2-yl)[1,2,4]triazolo[4',3': 1,6]pyrimido[5,4-c]pyridazin-5(6H)-one]: the IC50 came out at 242 nM.

Broadly, the IC50 is the midpoint of a concentration-inhibition curve.
